# Data published in patent publication US20220296615A1, “COMBINATION PRODUCT CONTAINING LIMONOID COMPOUND AND SULFONYLUREA COMPOUND” (ZHEJIANG YANGSHENGTANG INSTITUTE OF NATURAL MEDICATION CO., …, priority 2019, published 2022).
# Legend:
# Assay type in all cases: in vivo
# [1] = tested on: db/db mice; assay: Blood glucose and insulin in mouse type II diabetes model, limonoid compound, gliquidone or combination; conditions: single administration 0.2 g/kg per day by gavage, two weeks
# Source text: In the present embodiment, the limonoid compound was selected from nomilin, deacetylnomilin, nomilin acid, deacetylnomilin acid glycoside, and gliquidone single administration group, nomilin single administration group, deacetylnomilin single administration group, nomilin acid single administered group, deacetylnomilin acid glycoside single administration group, and respective combination thereof with gliquidone administration groups were set.
# Conditions for experimental feeding: as type II diabetes model mice, 6-week-old SPF-grade db/db mice were purchased from the Nanjing Model Biology Institute, and subjected to experimental feeding after 7 days of preliminary feeding. It should be noted that the conditions for raising the mice were as follows: the temperature was 23±1° C., the humidity was 55±10%, the lights were turned on between 7 am and 7 pm (the lights were turned off at other time), and the mice were allowed to freely take in water and feed. The experimental feed was mouse growth-stable feed (GB M2118), and the daily feeding and management of the animals were under the responsibility of the animal security department, which provided the animals with sufficient diet and fresh drinking water daily.
# Experimental grouping: male db/db mice (20±2 g) were selected, 18 male mice in each group were tested, and drinking bottles were sterilized weekly. […]
# [2] = tested on: STZ mice (mouse pancreatic islet β-cell injury model); assay: Blood glucose in mouse pancreatic islet β-cell injury model (STZ), limonoid compound, glipizide or combination; conditions: STZ ICR mice, single administration 0.1 g/kg per day by gavage, two weeks, 1 h after last administration; model group 29.5 ± 4.6, normal 7.5 ± 0.6
# Source text: In this example, a mouse pancreatic islet β-cell injury model was established by modeling ICR mice with streptozotocin (STZ) (Li Nan et al., Protective effect of pine pollen on kidney damage in diabetic nephropathy mice, Science and Technology Review, 2014, 32 (4/5): 95-99), and used to complete the evaluation of hypoglycemic effect in animals (this model could simulate pancreatic islet β-cell damage state of type I and type II diabetics). […]
# Gavage doses: the gavage dose was 0.1 g/kg per day for the ichangin group, the gavage dose was 0.1 g/kg per day for the ichangensin group, the gavage dose was 0.1 g/kg per day for the ichangin glycoside group, the gavage dose of glipizide was 0.1 g/kg per day for the glipizide group, ichangin at a dose of 0.05 g/kg and glipizide at a dose of 0.05 g/kg were simultaneously gavaged per day for the ichangin/glipizide combination group, ichangensin at a dose of 0.05 g/kg and glipizide at a dose of 0.05 g/kg were simultaneously gavaged per day for the ichangensin/glipizide combination group, ichangin glycoside at a dose of 0.05 g/kg and glipizide at a dose of 0.05 g/kg were simultaneously gavaged per day for the ichangin glycoside/glipizide combination group, the gavage volume was 10 mL/kg, and the normal group and the model group were administrated with 10 mL/kg of distilled water. […] The data were expressed as mean and standard deviation. […]
# [3] = tested on: STZ mice (mouse pancreatic islet β-cell injury model); assay: Blood glucose in mouse pancreatic islet β-cell injury model (STZ), limonoid compound, glibenclamide or combination; conditions: STZ ICR mice, single administration 0.02 g/kg per day by gavage, two weeks, 1 h after last administration; model group 29.5 ± 4.6, normal 7.5 ± 0.6
# Source text: The limonoid compound was selected from the group consisting of limonin, isolimonic acid, limonin glycoside, and isolimonic acid glycoside, and glibenclamide single administration group, limonin single administration group, isolimonic acid single administration group, limonin glycoside singe administration group, isolimonic acid glycoside singe administration group, and respective combination thereof with glibenclamide administration groups were set. Conditions of experimental feeding: ICR mice (20±2 g), aged 6 weeks, purchased from Zhejiang Academy of Medical Sciences, and subjected to experimental feeding after 7 days of preliminary feeding. It should be noted that the conditions for raising the mice were as follows: the temperature was 23±1° C., the humidity was 55±10%, the lights were turned on between 7 am and 7 pm (the lights were turned off at other time), and the mice were allowed to freely take in water and feed. The experimental feed was mouse growth-stable feed (GB […]), and the daily feeding and management of the animals were under the responsibility of the animal security department, which provided the animals with sufficient diet and fresh drinking water daily. […] The data were expressed as mean and standard deviation. The data before and after were analyzed by t-test, and P<0.05 was considered statistically significant.
# [4] = tested on: STZ mice (type II diabetes with pancreatic islet damage and obesity); assay: Blood glucose in mouse type II diabetes model with pancreatic islet damage and obesity (STZ + high-fat diet), limonoid compound, glimepiride or combination; conditions: STZ + high-fat diet ICR mice, single administration 0.5 g/kg per day by gavage, two weeks, 1 h after last administration; model group 29.6 ± 6.0, normal 5.9 ± 0.54
# Source text: In this example, a mouse model of type II diabetes with pancreatic islet damage and obesity was established by multiple modeling ICR mice with a small dose of streptozotocin (STZ), following with continuous high-fat diets (referring to literature: […] Conditions of experimental feeding: ICR mice (20±2 g), aged 6 weeks, purchased from Zhejiang Academy of Medical Sciences, and subjected to experimental feeding after 7 days of preliminary feeding. It should be noted that the conditions for raising the mice were as follows: the temperature was 23±1° C., the humidity was 55±10%, the lights were turned on between 7 am and 7 pm (the lights were turned off at other time), and the mice were allowed to freely take in water and feed. The experimental feed was mouse growth-stable feed (GB […]), and the daily feeding and management of the animals were under the responsibility of the animal security department, which provided the animals with sufficient diet and fresh drinking water daily. […] The data were expressed as mean and standard deviation. The data before and after were analyzed by t-test, and P<0.05 was considered statistically significant.
# [5] = tested on: db/db mice; assay: Blood glucose and leptin in mouse type II diabetes model, limonoid compound, gliclazide or combination; conditions: single administration 0.04 g/kg per day by gavage, two weeks, 1 h after last administration, model group 23.9 ± 4.2, normal 6.0 ± 0.7
# Source text: In the present example, db/db mice (line name BKS.Cg-Dock7^m+/+Lepr^db/Nju) were used to perform hypoglycemic efficacy evaluation test of animals (blood glucose level and leptin). The limonoid compound was selected from obacunone, isoobacunoic acid and obacunone glycoside, and gliclazide single administration group, obacunone single administration group, isoobacunoic acid single administration group, obacunone glycoside single administered group, and respective combination thereof with gliclazide administration groups were set. Conditions for experimental feeding: as type II diabetes model mice, 6-week-old SPF-grade db/db mice were purchased from the Nanjing Model Biology Institute, and subjected to experimental feeding after 7 days of preliminary feeding. It should be noted that the conditions for raising the mice were as follows: the temperature was 23±1° C., the humidity was 55±10%, the lights were turned on between 7 am and 7 pm (the lights were turned off at other time), and the mice were allowed to freely take in water and feed. […] The data were expressed as mean and standard deviation. The data before and after were analyzed by t-test, and P<0.05 was considered statistically significant.
smiles,measurement,setting,value
COc1ccc2c(c1)C(=O)N(CCc1ccc(S(=O)(=O)NC(=O)NC3CCCCC3)cc1)C(=O)C2(C)C [gliquidone],Insulin,"[1]; serum, ELISA, model group 10.56 ± 3.00, normal 1.05 ± 0.39",7.82 ± 1.52 pg/mL
same,Blood glucose value,"[1]; 1 h after last administration, model group 23.9 ± 4.2, normal 6.0 ± 0.7",10.3 ± 2.1 mmol/L
"Cc1cnc(C(=O)NCCc2ccc(S(=O)(=O)NC(=O)NC3CCCCC3)cc2)cn1 [Glipizide, glipizide]",Blood glucose value,[2],14.5 ± 2.3 mmol/L
"COc1ccc(Cl)cc1C(=O)NCCc1ccc(S(=O)(=O)NC(=O)NC2CCCCC2)cc1 [Glibenclamide, glibenclamide]",Blood glucose value,[3],18.3 ± 3.2 mmol/L
"CCC1=C(C)CN(C(=O)NCCc2ccc(S(=O)(=O)NC(=O)N[C@H]3CC[C@H](C)CC3)cc2)C1=O [Glimepiride, glimepiride]",Blood glucose value,[4],10.4 ± 2.1 mmol/L
"Cc1ccc(S(=O)(=O)NC(=O)NN2CC3CCCC3C2)cc1 (stereo not drawn) [Gliclazide, gliclazide]",Blood glucose value,[5],11.5 ± 2.9 mmol/L
